From patent US4546076A, “Enzymatic process for the determination of beta-lactam antibiotics” (U C B Societe Anonyme, priority 1982, dated 1985)

How the values were obtained:
Format in all cases: biochemical
[1] = biological target: T1, D-alanyl-D-alanine-carboxypeptidase produced by Actinomadura R 39 (enzyme R 39), immobilized (Actinomadura sp., UniProt P39045); assay: Dosage of cephalosporin C in serum with immobilized enzyme R 39 at higher temperature (Example 4)
T1 construct: which is excreted by Actinomadura R 39 when this microorganism; made in house; host or cells: Actinomadura R 39 (natural producer; deposit Institut Pasteur No. I-127), purified as in Frere et al., Biochem. J. 143 (1974) 233-240
T1 sequence (P39045 50-538): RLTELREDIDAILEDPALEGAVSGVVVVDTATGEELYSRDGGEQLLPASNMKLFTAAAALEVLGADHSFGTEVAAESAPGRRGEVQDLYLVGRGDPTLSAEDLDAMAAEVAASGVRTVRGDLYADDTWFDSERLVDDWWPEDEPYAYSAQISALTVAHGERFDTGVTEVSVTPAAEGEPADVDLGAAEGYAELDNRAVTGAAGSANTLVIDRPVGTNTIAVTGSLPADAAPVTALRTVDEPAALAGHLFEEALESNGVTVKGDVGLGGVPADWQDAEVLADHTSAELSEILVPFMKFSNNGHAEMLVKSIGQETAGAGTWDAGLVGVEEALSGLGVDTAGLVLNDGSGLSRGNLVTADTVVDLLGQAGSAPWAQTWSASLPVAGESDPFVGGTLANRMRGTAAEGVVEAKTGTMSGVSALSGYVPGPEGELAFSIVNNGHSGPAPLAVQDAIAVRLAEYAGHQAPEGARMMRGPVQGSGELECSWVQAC
Procedure: The procedure of Example 3 is followed but each incubation is carried out at 47° C. and at half the time.
Moreover, to each ml sample of serum, there is previously added 100 μl of 0.5M (pH 7.7) Hepes buffer containing 0.5M NaCl and 0.25M MgCl2.

[2] = biological target: T1, D-alanyl-D-alanine-carboxypeptidase produced by Actinomadura R 39 (enzyme R 39), immobilized; assay: Dosage of cephalosporin C in serum with immobilized enzyme R 39 (Example 3)
Procedure: (§1) A series of 1 ml milk samples each containing a known concentration of penicillin G and two 1 ml milk samples (blank and control) not containing penicillin G are prepared.
(§2) 5.5 mg of immobilized enzyme R 39 (=3 picomols of enzyme) are added to each sample and the mixture is incubated for 20 minutes at 37° C.
(§3) The milk is then separated from the immobilized enzyme by filtration and the immobilized enzyme is washed three times with 1 ml of 0.1M Hepes buffer (pH=7.7) containing 0.1M NaCl and 0.05M MgCl2.
(§4) Either 20 μl of 0.1M Hepes buffer (pH=7.7) containing 0.1M NaCl and 0.05M MgCl2 and 10 μl of the substrate solution (in the case of the control sample and the samples containing penicillin G), or 20 μl of the Hepes buffer and 10 μl of water (in the case of the blank sample), are then added to the separated and washed immobilized enzyme. The mixture is incubated for 30 minutes at 37° C.
(§5) At the end of this incubation, 2 μl of the D-amino acid oxidase suspension, 60 μl of the FAD solution, 10 μl of the peroxidase solution and 5 μl of the o-dianisidine solution are added respectively to the product obtained; the mixture is then incubated again for 10 minutes at 37° C.
(§6) The optical density of the colored solutions obtained is then measured on a spectrophotometer. For this purpose, 1 ml of a methanol/water solution (proportions 1:1) is added to the cell and the optical density is measured at 460 nm.
(§7) The optical density value found for the blank sample is subtracted from the optical density values found respectively for the control sample and for the other samples. Finally, the percentage residual enzymatic activity is calculated for each sample from the optical density values thus obtained.
The procedure of Example 1 is followed, using the same reagents but replacing the 1 ml milk samples by 1 ml serum samples containing each a known concentration of cephalosporin C.

[3] = biological target: T1, D-alanyl-D-alanine-carboxypeptidase produced by Actinomadura R 39 (enzyme R 39), immobilized; assay: Determination of penicillin G in milk with immobilized enzyme R 39 (Example 1); conditions: for coloration observed / optical density at 460 nm / optical density found minus optical density of the blank sample / percentage residual enzymatic activity: 1 ml milk; for percentage residual enzymatic activity: 20 min
Procedure: as §1, §2, §3, §4, §5, §6, §7

[4] = biological target: T1, D-alanyl-D-alanine-carboxypeptidase produced by Actinomadura R 39 (enzyme R 39), immobilized; assay: Determination of penicillin G in urine with immobilized enzyme R 39 (Example 2); conditions: 1 ml urine; for percentage residual enzymatic activity: 20 min
Procedure: as §1, §2, §3, §4, §5, §6, §7
(§8) The procedure of Example 1 is followed, using the same reagents but replacing the 1 ml milk samples by 1 ml serum or 1 ml urine samples.

[5] = biological target: T1, D-alanyl-D-alanine-carboxypeptidase produced by Actinomadura R 39 (enzyme R 39), immobilized; assay: Determination of penicillin G in serum with immobilized enzyme R 39 (Example 2); conditions: 1 ml serum; for percentage residual enzymatic activity: 20 min
Procedure: as §1, §2, §3, §4, §5, §6, §7, §8

[6] = cephalosporin C 1 ng/ml, 1 ml serum, each incubation at 47° C. and half the time
[7] = cephalosporin C 2 ng/ml, 1 ml serum, each incubation at 47° C. and half the time
[8] = cephalosporin C 10 ng/ml, 1 ml serum, each incubation at 47° C. and half the time
[9] = cephalosporin C 1 ng/ml, 1 ml serum, 37° C.
[10] = cephalosporin C 2 ng/ml, 1 ml serum, 37° C.
[11] = cephalosporin C 10 ng/ml, 1 ml serum, 37° C.
[12] = penicillin G 0.0005 I.U./ml, 1st series
[13] = penicillin G 0.0005 I.U./ml, 2nd series
[14] = penicillin G 0.0010 I.U./ml, 1st series
[15] = penicillin G 0.0010 I.U./ml, 2nd series
[16] = penicillin G 0.0015 I.U./ml, 2nd series
[17] = penicillin G 0.0020 I.U./ml, 1st series
[18] = penicillin G 0.0020 I.U./ml, 2nd series
[19] = penicillin G 0.0041 I.U./ml, 1st series
[20] = penicillin G 0.0082 I.U./ml, 1st series

CC(=O)OCC1=C(C(=O)O)N2C(=O)[C@@H](NC(=O)CCC[C@@H](N)C(=O)O)[C@H]2SC1 [cephalosporin C]
remaining activity at 0.01 µg/mL ([1]; 10 min, read-out: percentage residual enzymatic activity): 0% | remaining activity at 0.001 µg/mL ([1]; 10 min, cephalosporin C 1 ng/ml, 1 ml serum, each incubation at 47° C. and half the time, read-out: percentage residual enzymatic activity): 41% | remaining activity at 0.002 µg/mL ([1]; 10 min, cephalosporin C 2 ng/ml, 1 ml serum, each incubation at 47° C. and half the time, read-out: percentage residual enzymatic activity): 0% | coloration observed [1, 6]: light brown | optical density at 460 nm [1, 6]: 0.095 | optical density found minus optical density of the blank sample [1, 6]: 0.060 | coloration observed [1, 7]: light yellow | optical density at 460 nm [1, 7]: 0.035 | optical density found minus optical density of the blank sample [1, 7]: 0.000 | coloration observed [1, 8]: light yellow | optical density at 460 nm [1, 8]: 0.040 | optical density found minus optical density of the blank sample [1, 8]: 0.005 | remaining activity at 0.001 µg/mL ([2]; 20 min, read-out: percentage residual enzymatic activity): 44% | remaining activity at 0.002 µg/mL ([2]; 20 min, cephalosporin C 2 ng/ml, 1 ml serum, 37° C., read-out: percentage residual enzymatic activity): 8% | remaining activity at 0.01 µg/mL ([2]; 20 min, cephalosporin C 10 ng/ml, 1 ml serum, 37° C., read-out: percentage residual enzymatic activity): 0% | coloration observed [2, 9]: light yellow | optical density at 460 nm [2, 9]: 0.085 | optical density found minus optical density of the blank sample [2, 9]: 0.055 | coloration observed [2, 10]: light yellow | optical density at 460 nm [2, 10]: 0.040 | optical density found minus optical density of the blank sample [2, 10]: 0.010 | coloration observed [2, 11]: light yellow | optical density at 460 nm [2, 11]: 0.030 | optical density found minus optical density of the blank sample [2, 11]: 0.000

CC1(C)S[C@@H]2[C@H](NC(=O)Cc3ccccc3)C(=O)N2[C@H]1C(=O)O [penicillin G, benzylpenicillin]
coloration observed [3, 12]: brown | optical density at 460 nm [3, 12]: 0.170 | optical density found minus optical density of the blank sample [3, 12]: 0.135 | percentage residual enzymatic activity [3, 12]: 82% | coloration observed [3, 13]: yellow-brown | optical density at 460 nm [3, 13]: 0.145 | optical density found minus optical density of the blank sample [3, 13]: 0.110 | percentage residual enzymatic activity [3, 13]: 69% | coloration observed [3, 14]: yellow-brown | optical density at 460 nm [3, 14]: 0.150 | optical density found minus optical density of the blank sample [3, 14]: 0.115 | percentage residual enzymatic activity [3, 14]: 69% | coloration observed [3, 15]: yellow-brown | optical density at 460 nm [3, 15]: 0.100 | optical density found minus optical density of the blank sample [3, 15]: 0.065 | percentage residual enzymatic activity [3, 15]: 41% | coloration observed [3, 16]: yellow | optical density at 460 nm [3, 16]: 0.055 | optical density found minus optical density of the blank sample [3, 16]: 0.020 | percentage residual enzymatic activity [3, 16]: 12% | coloration observed [3, 17]: light yellow | optical density at 460 nm [3, 17]: 0.035 | optical density found minus optical density of the blank sample [3, 17]: 0.000 | percentage residual enzymatic activity [3, 17]: 0% | coloration observed [3, 18]: light yellow | optical density at 460 nm [3, 18]: 0.040 | optical density found minus optical density of the blank sample [3, 18]: 0.005 | percentage residual enzymatic activity [3, 18]: 3% | coloration observed [3, 19]: light yellow | optical density at 460 nm [3, 19]: 0.040 | optical density found minus optical density of the blank sample [3, 19]: 0.005 | percentage residual enzymatic activity [3, 19]: 3% | coloration observed [3, 20]: light yellow | optical density at 460 nm [3, 20]: 0.035 | optical density found minus optical density of the blank sample [3, 20]: 0.000 | percentage residual enzymatic activity [3, 20]: 0% | residual enzymatic activity ([3]; sample containing 0.002 I.U. or more per ml of milk): zero | concentration determined visually (light yellow coloration) [4]: at least 0.003 I.U./ml | coloration observed ([4]; penicillin G 0.003 I.U./ml): light yellow | optical density at 460 nm ([4]; penicillin G 0.003 I.U./ml): 0.040 | optical density found minus optical density of the blank sample ([4]; penicillin G 0.003 I.U./ml): 0.010 | percentage residual enzymatic activity ([4]; penicillin G 0.003 I.U./ml): 8% | coloration observed ([4]; penicillin G 0.010 I.U./ml): light yellow | optical density at 460 nm ([4]; penicillin G 0.010 I.U./ml): 0.035 | optical density found minus optical density of the blank sample ([4]; penicillin G 0.010 I.U./ml): 0.005 | percentage residual enzymatic activity ([4]; penicillin G 0.010 I.U./ml): 4% | concentration determined visually (light yellow coloration) [5]: at least 0.003 I.U./ml | coloration observed ([5]; penicillin G 0.003 I.U./ml): light yellow | optical density at 460 nm ([5]; penicillin G 0.003 I.U./ml): 0.035 | optical density found minus optical density of the blank sample ([5]; penicillin G 0.003 I.U./ml): 0.005 | percentage residual enzymatic activity ([5]; penicillin G 0.003 I.U./ml): 4% | coloration observed ([5]; penicillin G 0.010 I.U./ml): light yellow | optical density at 460 nm ([5]; penicillin G 0.010 I.U./ml): 0.030 | optical density found minus optical density of the blank sample ([5]; penicillin G 0.010 I.U./ml): 0.000 | percentage residual enzymatic activity ([5]; penicillin G 0.010 I.U./ml): 0%
